Ends that are not written are not given here.
Columns and labels:
[1] = tested on: MDA-MB-231 human breast cancer cell line; assay: In vitro cytotoxicity, MTT cell viability assay; type: cell-based
Method: Incubations were conducted for 24 h at 37° C.

[2] = tested on: AN3-CA human endometrial cancer cell line; conditions: read-out: Cytotoxicity evaluated as IC50 value, 24 h at 37° C., MTT
Method: (§1) Studies were designed to test receptor specificity, correlation of sensitivity to LHRH receptor expression and initial efficacy kinetics in vitro by comparing targeted kinetics to untargeted kinetics. […] Cytotoxicity was evaluated as IC50 value for each cell line.
(§2) Cell cultures were prepared in 96 well plates using 10,000 cells/well and were allowed to attach for 48 hours. […] Incubations were conducted for 24 h at 37° C. Cell viability was determined using formazan conversion assays (MTT assays). Controls contained USP saline or 0.1% TritonX-100™ as reference for 0 and 100% cell death, respectively.
(§3) Data were processed and analyzed using Graph Pad Prizm 4™ software (Graph Pad Prizm, Inc). Statistical analysis for significance was determined by a two-tailed Student's T-test.

[3] = tested on: OVCAR-3 ovarian cancer cell line; conditions: read-out: Cytotoxicity evaluated as IC50 value; OVCAR-3, 24 h at 37° C., MTT
Method: as §1, §2, §3

[4] = tested on: LNCaP prostate cancer cell line; conditions: read-out: Cytotoxicity evaluated as IC50 value, 24 h at 37° C., MTT
Method: as §1, §2, §3

[5] = tested on: PC-3 prostate cancer cell line; conditions: read-out: Cytotoxicity evaluated as IC50 value; PC-3, 24 h at 37° C., MTT
Method: as §1, §2, §3

[6] = tested on: MDA-MB-4355 breast cancer cell line; conditions: read-out: Cytotoxicity evaluated as IC50 value; MDA-MB-4355, highest LHRH receptor capacity, 24 h at 37° C., MTT
Method: as §1, §2, §3

[7] = tested on: SKOV-3 LHRH receptor negative ovarian cancer cell line; conditions: read-out: Cytotoxicity evaluated as IC50 value, 24 h at 37° C., MTT
Method: as §1, §2, §3

Compound: N.N.[Cl][Pt][Cl] [cisplatinum, reference compound]
- Sensitivity of cell line to the drug ([1]; MDA-MB-231, multi drug resistant): insensitive

Compound: KFAKFAKKFAKFAKKFAKQHWSYGLRPG [EP-100]
- IC50 ([1]; MDA-MB-231 (ER, Her2/neu, PR negative, multi drug resistant), 24 h at 37° C., MTT, read-out: Cytotoxicity evaluated as IC50 value): 5.5 µM
- IC50 [2]: 3.3 µM
- IC50 [3]: 3 µM
- IC50 [4]: 1.5 µM
- IC50 [5]: 5.5 µM
- IC50 [6]: 0.8 µM
- IC50 [7]: > 10 µM

From patent US11066693B2, “Methods for diagnosing LHRH or hCG/LH receptor expressing tumors, cancers and neoplasias” (ESPERANCE PHARMACEUTICALS, INC., priority 2009, dated 2021)
